Measured values taken from PubChem BioAssay (NCI).
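48-hour exposure; five concentrations; linearly interpolated endpoints. TGI: concentration producing complete growth inhibition.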

Assays:
Assay in all cases: growth of human tumour cells (NCI), 48 h
M14 melanoma = test system: M14 melanoma
SF-268 CNS = test system: SF-268 CNS
SK-MEL-5 melanoma = test system: SK-MEL-5 melanoma
IGROV1 ovarian = test system: IGROV1 ovarian
BT-549 breast = test system: BT-549 breast
NCI/ADR-RES ovarian = test system: NCI/ADR-RES ovarian
SK-MEL-28 melanoma = test system: SK-MEL-28 melanoma
SNB-75 CNS = test system: SNB-75 CNS
SR leukemia = test system: SR leukemia
ACHN renal = test system: ACHN renal
HOP-62 NSCLC = test system: HOP-62 NSCLC
TK-10 renal = test system: TK-10 renal
NCI-H522 lung = test system: NCI-H522 lung
786-0 renal = test system: 786-0 renal
MCF7 breast = test system: MCF7 breast
OVCAR-3 ovarian = test system: OVCAR-3 ovarian
MDA-MB-231 breast = test system: MDA-MB-231 breast
A549 NSCLC = test system: A549 NSCLC
NCI-H226 lung = test system: NCI-H226 lung
SF-539 CNS = test system: SF-539 CNS
SF-295 CNS = test system: SF-295 CNS
A498 renal = test system: A498 renal
EKVX NSCLC = test system: EKVX NSCLC
SW-620 colon = test system: SW-620 colon
OVCAR-4 ovarian = test system: OVCAR-4 ovarian
K-562 leukemia = test system: K-562 leukemia
HCT-116 colon = test system: HCT-116 colon
U251 CNS = test system: U251 CNS
HCT-15 colon = test system: HCT-15 colon
PC-3 prostate = test system: PC-3 prostate
MALME-3M melanoma = test system: MALME-3M melanoma
LOX IMVI melanoma = test system: LOX IMVI melanoma
HT29 colon = test system: HT29 colon
NCI-H23 lung = test system: NCI-H23 lung
COLO 205 colon = test system: COLO 205 colon
OVCAR-5 ovarian = test system: OVCAR-5 ovarian
MDA-MB-435 = test system: MDA-MB-435
HCC-2998 colon = test system: HCC-2998 colon
MOLT-4 leukemia = test system: MOLT-4 leukemia
SK-OV-3 ovarian = test system: SK-OV-3 ovarian
OVCAR-8 ovarian = test system: OVCAR-8 ovarian
CCRF-CEM leukemia = test system: CCRF-CEM leukemia
MDA-N = test system: MDA-N
RPMI-8226 leukemia = test system: RPMI-8226 leukemia
SNB-19 CNS = test system: SNB-19 CNS
UACC-257 melanoma = test system: UACC-257 melanoma
UO-31 renal = test system: UO-31 renal
UACC-62 melanoma = test system: UACC-62 melanoma
T-47D breast = test system: T-47D breast
SN12C renal = test system: SN12C renal
NCI-H460 lung = test system: NCI-H460 lung
HOP-92 NSCLC = test system: HOP-92 NSCLC
KM12 colon = test system: KM12 colon
DU-145 prostate = test system: DU-145 prostate
RXF 393 renal = test system: RXF 393 renal
HS 578T breast = test system: HS 578T breast
SK-MEL-2 melanoma = test system: SK-MEL-2 melanoma
CAKI-1 renal = test system: CAKI-1 renal

For `CC(C)c1nc(Cl)nc(Cl)c1Cl`, which TGI (M14 melanoma) is on record?
Its TGI is 1830 nM.

And the TGI (SF-268 CNS)?
The TGI was 9.12 µM.

What about the TGI (SK-MEL-5 melanoma) of the same molecule?
The TGI was 6.7 µM.

And the TGI (IGROV1 ovarian)?
The TGI was 0.423 µM.

What about the TGI (BT-549 breast) of the same molecule?
Its TGI is 0.0335 µM.

What about the TGI (NCI/ADR-RES ovarian) of the same molecule?
The TGI was greater than 56.4 µM.

What about the TGI (SK-MEL-28 melanoma) of the same molecule?
Its TGI is 2.72 µM.

What about the TGI (SNB-75 CNS) of the same molecule?
The TGI was 22.7 µM.

What about the TGI (SR leukemia) of the same molecule?
The TGI was 0.0209 µM.

And the TGI (ACHN renal)?
The TGI was 1.85 µM.

And the TGI (HOP-62 NSCLC)?
The TGI was 4.04 µM.

And the TGI (TK-10 renal)?
The TGI was 4.28 µM.

And the TGI (NCI-H522 lung)?
The TGI was 1.54 µM.

And the TGI (786-0 renal)?
The TGI was 2.26 µM.

What about the TGI (MCF7 breast) of the same molecule?
The TGI was 6.11 µM.

What about the TGI (OVCAR-3 ovarian) of the same molecule?
Its TGI is 1.74 µM.

What about the TGI (MDA-MB-231 breast) of the same molecule?
Its TGI is 5.64 µM.

And the TGI (A549 NSCLC)?
The TGI was 18.6 µM.

And the TGI (NCI-H226 lung)?
Its TGI is 5.58 µM.

And the TGI (SF-539 CNS)?
The TGI was 1.82 µM.

And the TGI (SF-295 CNS)?
The TGI was 8.91 µM.

What about the TGI (A498 renal) of the same molecule?
The TGI was 9.37 µM.

What about the TGI (EKVX NSCLC) of the same molecule?
The TGI was 6.62 µM.

And the TGI (SW-620 colon)?
Its TGI is 858 nM.

And the TGI (OVCAR-4 ovarian)?
Its TGI is 751 nM.

What about the TGI (K-562 leukemia) of the same molecule?
The TGI was 70.8 nM.

And the TGI (HCT-116 colon)?
The TGI was 1.41 µM.

And the TGI (U251 CNS)?
The TGI was 2.43 µM.

What about the TGI (HCT-15 colon) of the same molecule?
Its TGI is 15.7 µM.

What about the TGI (PC-3 prostate) of the same molecule?
Its TGI is 4.19 µM.

What about the TGI (MALME-3M melanoma) of the same molecule?
Its TGI is 12.9 µM.

What about the TGI (LOX IMVI melanoma) of the same molecule?
Its TGI is 198 nM.

What about the TGI (HT29 colon) of the same molecule?
The TGI was 2.52 µM.

What about the TGI (NCI-H23 lung) of the same molecule?
Its TGI is 3.05 µM.

What about the TGI (COLO 205 colon) of the same molecule?
The TGI was 13.9 µM.

And the TGI (OVCAR-5 ovarian)?
Its TGI is 3.93 µM.

What about the TGI (MDA-MB-435) of the same molecule?
Its TGI is 2.69 µM.

And the TGI (HCC-2998 colon)?
The TGI was 13.1 µM.

What about the TGI (MOLT-4 leukemia) of the same molecule?
The TGI was 176 nM.

And the TGI (SK-OV-3 ovarian)?
The TGI was 17.6 µM.

What about the TGI (OVCAR-8 ovarian) of the same molecule?
Its TGI is 2.45 µM.

And the TGI (CCRF-CEM leukemia)?
Its TGI is 35.8 nM.

What about the TGI (MDA-N) of the same molecule?
Its TGI is 4.9 µM.

What about the TGI (RPMI-8226 leukemia) of the same molecule?
The TGI was greater than 100 µM.

And the TGI (SNB-19 CNS)?
The TGI was 3.06 µM.

And the TGI (UACC-257 melanoma)?
The TGI was 1910 nM.

And the TGI (UO-31 renal)?
Its TGI is 0.166 µM.

And the TGI (UACC-62 melanoma)?
The TGI was 2.25 µM.

And the TGI (T-47D breast)?
The TGI was 13.6 µM.

What about the TGI (SN12C renal) of the same molecule?
Its TGI is 2.83 µM.

And the TGI (NCI-H460 lung)?
Its TGI is 16.6 µM.

What about the TGI (HOP-92 NSCLC) of the same molecule?
Its TGI is 0.381 µM.

What about the TGI (KM12 colon) of the same molecule?
The TGI was 3.9 µM.

What about the TGI (DU-145 prostate) of the same molecule?
Its TGI is 10.5 µM.

And the TGI (RXF 393 renal)?
The TGI was 1.47 µM.

And the TGI (HS 578T breast)?
Its TGI is 2.91 µM.

How did the TGI (M14 melanoma) turn out when `CN(C)CCn1c(=O)nc2c3c(c([N+](=O)[O-])ccc31)Nc1ccc(O)cc1-2` was run?
Its TGI is greater than 49300 nM.

What about the TGI (SK-MEL-2 melanoma) of the same molecule?
Its TGI is 33.6 µM.

What about the TGI (SF-268 CNS) of the same molecule?
Its TGI is 17.1 µM.

And the TGI (SK-MEL-5 melanoma)?
Its TGI is 20.1 µM.

What about the TGI (IGROV1 ovarian) of the same molecule?
Its TGI is 12.3 µM.

What about the TGI (BT-549 breast) of the same molecule?
The TGI was 37 µM.

And the TGI (NCI/ADR-RES ovarian)?
Its TGI is greater than 100 µM.

What about the TGI (SK-MEL-28 melanoma) of the same molecule?
Its TGI is 32.7 µM.

And the TGI (CAKI-1 renal)?
The TGI was greater than 45.7 µM.

And the TGI (SNB-75 CNS)?
Its TGI is 21.2 µM.

What about the TGI (SR leukemia) of the same molecule?
Its TGI is 8.92 µM.

And the TGI (ACHN renal)?
Its TGI is 17.4 µM.

And the TGI (HOP-62 NSCLC)?
The TGI was 16.6 µM.

What about the TGI (TK-10 renal) of the same molecule?
The TGI was 36 µM.

What about the TGI (NCI-H522 lung) of the same molecule?
Its TGI is 6.13 µM.

What about the TGI (786-0 renal) of the same molecule?
The TGI was 6.52 µM.

What about the TGI (MCF7 breast) of the same molecule?
Its TGI is 5.68 µM.

And the TGI (OVCAR-3 ovarian)?
Its TGI is 15.3 µM.

What about the TGI (MDA-MB-231 breast) of the same molecule?
The TGI was 10.2 µM.

What about the TGI (A549 NSCLC) of the same molecule?
Its TGI is 27.8 µM.

What about the TGI (NCI-H226 lung) of the same molecule?
The TGI was 20.8 µM.

What about the TGI (SF-539 CNS) of the same molecule?
Its TGI is 8.36 µM.

What about the TGI (SF-295 CNS) of the same molecule?
Its TGI is 24.8 µM.

What about the TGI (A498 renal) of the same molecule?
Its TGI is 23.4 µM.

What about the TGI (EKVX NSCLC) of the same molecule?
The TGI was greater than 63.6 µM.

What about the TGI (SW-620 colon) of the same molecule?
Its TGI is greater than 42600 nM.

And the TGI (OVCAR-4 ovarian)?
The TGI was greater than 42700 nM.

And the TGI (K-562 leukemia)?
The TGI was greater than 25700 nM.

What about the TGI (HCT-116 colon) of the same molecule?
The TGI was 8.37 µM.

And the TGI (U251 CNS)?
The TGI was 6.26 µM.

And the TGI (HCT-15 colon)?
Its TGI is greater than 100 µM.

And the TGI (PC-3 prostate)?
Its TGI is greater than 46.9 µM.

And the TGI (MALME-3M melanoma)?
Its TGI is 18 µM.

And the TGI (LOX IMVI melanoma)?
The TGI was 3150 nM.

And the TGI (HT29 colon)?
Its TGI is 15.3 µM.

What about the TGI (NCI-H23 lung) of the same molecule?
Its TGI is 33.4 µM.

What about the TGI (COLO 205 colon) of the same molecule?
The TGI was 14.5 µM.

And the TGI (OVCAR-5 ovarian)?
Its TGI is greater than 81.2 µM.

What about the TGI (MDA-MB-435) of the same molecule?
The TGI was 46.6 µM.

What about the TGI (HCC-2998 colon) of the same molecule?
Its TGI is 13.1 µM.

And the TGI (MOLT-4 leukemia)?
The TGI was 3600 nM.

What about the TGI (SK-OV-3 ovarian) of the same molecule?
Its TGI is 35.1 µM.

And the TGI (OVCAR-8 ovarian)?
Its TGI is 11.4 µM.

And the TGI (MDA-N)?
Its TGI is 23.7 µM.

And the TGI (RPMI-8226 leukemia)?
Its TGI is 26.6 µM.

What about the TGI (SNB-19 CNS) of the same molecule?
Its TGI is 16.8 µM.

What about the TGI (UACC-257 melanoma) of the same molecule?
Its TGI is greater than 54900 nM.

And the TGI (UO-31 renal)?
The TGI was 28.7 µM.

What about the TGI (UACC-62 melanoma) of the same molecule?
The TGI was 23.2 µM.

And the TGI (T-47D breast)?
Its TGI is 6.48 µM.

What about the TGI (SN12C renal) of the same molecule?
Its TGI is 17.1 µM.

What about the TGI (NCI-H460 lung) of the same molecule?
The TGI was 15.6 µM.

What about the TGI (HOP-92 NSCLC) of the same molecule?
The TGI was 16.2 µM.

What about the TGI (KM12 colon) of the same molecule?
Its TGI is greater than 27.5 µM.

What about the TGI (DU-145 prostate) of the same molecule?
The TGI was greater than 47.5 µM.

What about the TGI (RXF 393 renal) of the same molecule?
Its TGI is 10.5 µM.

And the TGI (HS 578T breast)?
Its TGI is 22.4 µM.
